Measurements as given in patent publication US20060069132A1, “Azolecarboxamide herbicides” (priority 2004, published 2006).

How the values were obtained:
large crabgrass = test: Test A pre-/postemergence herbicide test; format: in vivo, Digitaria sanguinalis
Outline: (§1)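 Plants are held in greenhouse about ten days after treatment, then compared with untreated controls and scored 0 (no effect) to 100 (complete control). Preemergence dosing is a directed soil spray on sown sandy loam; postemergence dosing is spray to runoff at 2–10 cm height.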

[1] = system: smallflower umbrella sedge; test: Test C flooded paddy test; format: in vivo, Cyperus difformis; settings: for Plant response rating, Sedge, Umbrella: 500 g ai/ha, visual rating after 12 to 14 days
morningglory [2] = test: Test B pre-/postemergence herbicide test; format: in vivo, Ipomoea coccinea
Outline: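 Species tested were Echinochloa crus-galli, Ipomoea coccinea, Xanthium strumarium and Oryza sativa, treated both before emergence and at the 1- to 4-leaf stage; rice and barnyardgrass were also tested under flooding at 2 leaves. Greenhouse incubation lasted 13–15 days before visual 0–100 scoring.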

rice = test: Test B pre-/postemergence herbicide test; format: in vivo, Oryza sativa; settings: preemergence
Outline: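 Seeds were planted and treated preemergence with compounds formulated in a non-phytotoxic solvent mixture containing surfactant, while plants at the 1- to 4-leaf stage (2 to 18 cm) received postemergence sprays. Flooded paddy plants were grown to the 2-leaf stage. After 13 to 15 days in a greenhouse, injury was visually rated 0–100 against untreated controls.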

barnyardgrass = test: Test B flooded paddy test; format: in vivo, Echinochloa crus-galli; settings: 1000 g ai/ha, scale 0 to 100 (0 no effect, 100 complete control)
Outline: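 Plants grow to 1- to 4-leaf stage (2–18 cm) for postemergence spraying, or to 2-leaf stage for the paddy test. Formulated compound is applied. Greenhouse holding lasts 13–15 days. Response is scored visually relative to controls, 0 no effect to 100 complete control; a dash means no result.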

velvetleaf = test: Test A pre-/postemergence herbicide test; format: in vivo, Abutilon theophrasti
Outline: as §1

bermudagrass = test: Test C pre-/postemergence herbicide test; format: in vivo, Cynodon dactylon; settings: for Bermudagrass plant response rating: Preemergence, 500 g ai/ha
Outline: (§2)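 Greenhouse-grown plants were evaluated visually 12 to 14 days after treatment, with 100 meaning complete control and 0 no effect. Application was preemergence, or postemergence at 2 to 18 cm.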

morningglory [3] = test: Test C pre-/postemergence herbicide test; format: in vivo, Ipomoea coccinea; set-up: key to Plant response rating, Morningglory: 0 = no effect, 100 = complete control; settings: for Plant response rating, Morningglory: visual, 12 to 14 days
Outline: as §2

[4] = Postemergence, 500 g ai/ha, 0 to 100 scale, 0 no effect, 100 complete control
[5] = Postemergence, 2000 g ai/ha, 0 to 100 scale, 0 no effect, 100 complete control
[6] = Preemergence, 2000 g ai/ha, visual rating, 0 to 100 scale (0 no effect, 100 complete control)
[7] = preemergence, 500 g ai/ha, visual injury, 0 to 100 scale (0 no effect, 100 complete control)
[8] = 125 g ai/ha, scale 0 to 100 (0 no effect, 100 complete control)
[9] = 250 g ai/ha, scale of 0 to 100, 0 is no effect, 100 is complete control
[10] = scale 0 to 100 (0 no effect, 100 complete control)
[11] = 125 g ai/ha, 0 = no effect, 100 = complete control, preemergence
[12] = 500 g ai/ha, visual rating, 0 = no effect, 100 = complete control, preemergence
[13] = postemergence, 125 g ai/ha, visual rating, scale 0 (no effect) to 100 (complete control)
[14] = postemergence, 500 g ai/ha, scale 0 to 100, 0 is no effect, 100 is complete control
[15] = 125 g ai/ha, 0 = no effect, 100 = complete control
[16] = 500 g ai/ha, visual rating, 0 = no effect, 100 = complete control
[17] = Preemergence, 500 g ai/ha, visual rating, 0 to 100 scale (0 no effect, 100 complete control)
[18] = 62 g ai/ha, scale 0 to 100 (0 no effect, 100 complete control)
[19] = 125 g ai/ha, scale of 0 to 100, 0 is no effect, 100 is complete control
[20] = 125 g ai/ha, 0 to 100 scale, 0 is no effect, 100 is complete control
[21] = 125 g ai/ha, scale 0 (no effect) to 100 (complete control), visual, 12 to 14 days, preemergence
[22] = scale 0 to 100, 0 no effect, 100 complete control
[23] = Postemergence, 500 g ai/ha, visual rating after 13 to 15 days, scale 0 (no effect) to 100 (complete control)
[24] = preemergence, 125 g ai/ha, 0 to 100 scale, 0 is no effect, 100 is complete control

| Compound | Crabgrass, Large plant response rating (large crabgrass; [4]) | Plant response rating, Crabgrass, Large (large crabgrass; [5]) | Crabgrass, Large plant response rating (large crabgrass; [6]) | Crabgrass, Large plant response rating (large crabgrass; [7]) | Sedge, Umbrella plant response rating ([1]; 62 g ai/ha, scale 0 to 100) | Sedge, Umbrella plant response rating [1, 8] | Sedge, Umbrella plant response rating [1, 9] | Plant response rating, Sedge, Umbrella [1, 10] | Morningglory plant response rating (0 to 100 scale) (morningglory [2]; [11]) | Plant response rating, Morningglory (morningglory [2]; [12]) | Morningglory plant response rating (morningglory [2]; [13]) | Morningglory plant response rating (morningglory [2]; [14]) | Rice plant response rating (0 to 100 scale) (rice; [15]) | Plant response rating, Rice (rice; [16]) | Barnyardgrass plant response rating (barnyardgrass) | Velvetleaf plant response rating (velvetleaf; [4]) | Plant response rating, Velvetleaf (velvetleaf; [5]) | Velvetleaf plant response rating (velvetleaf; [6]) | Velvetleaf plant response rating (velvetleaf; [7]) | Plant response rating, Rice (rice; [20]) | also measured |
| --- | --- | --- | --- | --- | --- | --- | --- | --- | --- | --- | --- | --- | --- | --- | --- | --- | --- | --- | --- | --- | --- |
| CCn1nc(C(C)(C)C)cc1C(=O)Nc1cccc(OC(C)C)c1 [Compound 273] | 25 | 65 | 100 | 75 | 70 | 75 | 75 | 75 | 0 | 10 | 20 | 70 | 0 | 40 | 60 | 90 | 95 | 75 | 60 |  |  |
| C=CCn1nc(C(C)(C)C)cc1C(=O)Nc1cccc(C(C)=NO)c1 [Compound 117] | 40 | 65 | 75 |  |  |  | 75 | 80 |  |  |  |  |  |  |  | 50 | 65 | 65 |  | 20 | Crabgrass, Large plant response rating (large crabgrass; [17]): 45; Sedge, Umbrella plant response rating [1, 18]: 40; Sedge, Umbrella plant response rating [1, 19]: 55; Plant response rating, Morningglory (morningglory [2]; 500 g ai/ha, visual rating 0-100, 0 no effect, 100 complete control, preemergence): 60; Barnyardgrass plant response rating (barnyardgrass; visual rating, 13 to 15 days): 70; Velvetleaf plant response rating (velvetleaf; [17]): 50 |
| CCn1nc(C(C)(C)C)cc1C(=O)Nc1cccc(C(=O)N2CC=CC2)c1 [Compound 286] | 20 | 25 | 70 | 15 | 30 | 70 | 90 | 90 | 0 | 0 | 0 | 0 | 30 | 80 | 90 | 30 | 50 | 70 | 20 |  |  |
| CCCn1nc(C(C)(C)C)cc1C(=O)Nc1cccc(C(=O)NCC)c1 [Compound 57] |  |  |  |  |  |  |  |  |  |  | 10 |  |  |  |  |  |  |  |  | 30 | Plant response rating (0 = no effect, 100 = complete control), Bermudagrass (bermudagrass; 62 g ai/ha, preemergence): 55; Plant response rating, Bermudagrass (bermudagrass; [21]): 95; Plant response rating, Bermudagrass (bermudagrass; 250 g ai/ha, scale 0 to 100 (0 no effect, 100 complete control), visual, 12 to 14 days, preemergence): 95; Bermudagrass plant response rating (bermudagrass; [22]): 100; Plant response rating, Morningglory (morningglory [2]; [23]): 10; Morningglory plant response rating (morningglory [2]; Preemergence, 500 g ai/ha, scale 0 to 100): 0; Plant response rating, Morningglory (morningglory [2]; [24]): 0; Barnyardgrass plant response rating (barnyardgrass; visual rating, 13 to 15 days): 60; Plant response rating (0 = no effect, 100 = complete control), Morningglory (morningglory [3]; 62 g ai/ha, preemergence): 0; Plant response rating, Morningglory (morningglory [3]; 125 g ai/ha, scale 0 (no effect) to 100 (complete control), preemergence): 0; Plant response rating, Morningglory (morningglory [3]; 250 g ai/ha, scale 0 to 100 (0 no effect, 100 complete control), preemergence): 25; Morningglory plant response rating (morningglory [3]; Preemergence, 500 g ai/ha, scale 0 to 100, 0 no effect, 100 complete control): 25 |
| CCn1nc(C(C)(C)C)cc1C(=O)Nc1cccc(C(=O)NOC)c1 [Compound 67] |  | 20 |  |  |  |  | 75 | 75 |  |  | 0 |  |  |  |  |  | 15 | 75 |  | 0 | Plant response rating, Crabgrass, Large (large crabgrass; [4]): 20; Crabgrass, Large plant response rating (large crabgrass; [17]): 15; Crabgrass, Large plant response rating (large crabgrass; Preemergence, 2000 g ai/ha, 0 to 100 scale, 0 no effect, 100 complete control): 55; Sedge, Umbrella plant response rating [1, 18]: 50; Sedge, Umbrella plant response rating [1, 19]: 50; Plant response rating, Morningglory (morningglory [2]; [23]): 10; Plant response rating, Morningglory (morningglory [2]; [24]): 0; Barnyardgrass plant response rating (barnyardgrass; visual rating, 13 to 15 days): 60; Velvetleaf plant response rating (velvetleaf; [17]): 30 |
| CCn1nc(C(C)(C)C)cc1C(=O)Nc1cncc(C(=O)N(C)C)n1 [Compound 287] | 10 | 60 | 100 | 75 | 0 | 35 | 70 | 75 | 0 | 10 |  | 20 | 80 | 90 | 80 | 55 | 65 | 100 | 50 |  | Plant response rating, Bermudagrass (bermudagrass; 62 g ai/ha, preemergence, scale 0 to 100, 0 no effect, 100 complete control): 85; Plant response rating, Bermudagrass (bermudagrass; [21]): 95; Plant response rating, Bermudagrass (bermudagrass; 250 g ai/ha, scale 0-100, preemergence): 95; Bermudagrass plant response rating (bermudagrass; [22]): 95; Morningglory plant response rating (morningglory [2]; 125 g ai/ha, visual rating, scale 0 (no effect) to 100 (complete control), postemergence): 0 |
